According to PMC11563871, “The human ATAD5 has evolved unique structural elements to function exclusively as a PCNA unloader” (Nature Structural & Molecular Biology, 2024):

Tests used:
ATAD5-RFC = tested on: T1, ATAD5-RFC; test: malachite green phosphate ATPase assay; type: biochemical, Homo sapiens; settings: 1 mM ATP, 0.25 μM ATAD5-RFC, 2 mM MgCl2, pH 7.6, room temperature; alone or with PCNA and/or DNA
T1 construct: N-terminally truncated ATAD5 (812-end of 1844), N-terminal 3xFLAG and C-terminal 6xHis, heteropentamer with RFC2-RFC5, insect cells (Sf9/Hi5)
T1 sequence (Q96QE3 812-1844): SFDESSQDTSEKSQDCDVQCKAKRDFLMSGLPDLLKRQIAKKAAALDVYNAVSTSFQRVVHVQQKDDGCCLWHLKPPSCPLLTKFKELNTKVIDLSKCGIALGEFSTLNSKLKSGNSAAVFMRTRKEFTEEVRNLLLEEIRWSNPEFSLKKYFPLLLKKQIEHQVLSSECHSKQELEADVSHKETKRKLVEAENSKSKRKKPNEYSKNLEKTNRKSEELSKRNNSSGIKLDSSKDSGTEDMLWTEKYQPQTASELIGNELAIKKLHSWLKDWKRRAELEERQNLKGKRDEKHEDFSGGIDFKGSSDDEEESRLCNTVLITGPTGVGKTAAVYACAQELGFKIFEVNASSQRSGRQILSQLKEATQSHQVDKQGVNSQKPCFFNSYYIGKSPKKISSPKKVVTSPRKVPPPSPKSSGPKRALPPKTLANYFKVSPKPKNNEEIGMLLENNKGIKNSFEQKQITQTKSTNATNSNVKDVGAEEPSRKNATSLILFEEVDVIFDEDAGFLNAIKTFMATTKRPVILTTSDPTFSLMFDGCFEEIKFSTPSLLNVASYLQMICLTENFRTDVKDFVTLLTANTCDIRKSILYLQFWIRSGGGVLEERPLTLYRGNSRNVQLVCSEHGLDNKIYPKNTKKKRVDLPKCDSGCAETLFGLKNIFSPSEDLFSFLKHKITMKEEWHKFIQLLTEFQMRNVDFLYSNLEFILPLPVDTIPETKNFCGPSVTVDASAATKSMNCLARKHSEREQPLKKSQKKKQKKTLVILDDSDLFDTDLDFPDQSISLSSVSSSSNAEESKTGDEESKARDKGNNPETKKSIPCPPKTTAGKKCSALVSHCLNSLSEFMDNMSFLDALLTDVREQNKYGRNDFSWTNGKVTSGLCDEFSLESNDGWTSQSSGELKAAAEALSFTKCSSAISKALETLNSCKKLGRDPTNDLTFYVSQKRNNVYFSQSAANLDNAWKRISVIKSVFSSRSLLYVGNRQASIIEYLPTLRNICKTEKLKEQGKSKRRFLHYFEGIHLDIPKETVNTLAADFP
T1 sequence (P35250 whole entry, further chain, the tested form may be a part): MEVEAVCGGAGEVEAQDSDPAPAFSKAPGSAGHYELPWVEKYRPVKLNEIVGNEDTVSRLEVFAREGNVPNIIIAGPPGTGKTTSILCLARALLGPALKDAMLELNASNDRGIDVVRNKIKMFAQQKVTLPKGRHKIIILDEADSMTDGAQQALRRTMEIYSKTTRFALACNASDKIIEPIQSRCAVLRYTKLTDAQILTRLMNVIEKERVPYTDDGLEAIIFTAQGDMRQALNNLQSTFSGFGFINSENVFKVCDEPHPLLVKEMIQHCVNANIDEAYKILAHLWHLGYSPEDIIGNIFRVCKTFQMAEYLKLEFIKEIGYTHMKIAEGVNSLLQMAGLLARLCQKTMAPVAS
T1 sequence (P40938 whole entry, further chain, the tested form may be a part): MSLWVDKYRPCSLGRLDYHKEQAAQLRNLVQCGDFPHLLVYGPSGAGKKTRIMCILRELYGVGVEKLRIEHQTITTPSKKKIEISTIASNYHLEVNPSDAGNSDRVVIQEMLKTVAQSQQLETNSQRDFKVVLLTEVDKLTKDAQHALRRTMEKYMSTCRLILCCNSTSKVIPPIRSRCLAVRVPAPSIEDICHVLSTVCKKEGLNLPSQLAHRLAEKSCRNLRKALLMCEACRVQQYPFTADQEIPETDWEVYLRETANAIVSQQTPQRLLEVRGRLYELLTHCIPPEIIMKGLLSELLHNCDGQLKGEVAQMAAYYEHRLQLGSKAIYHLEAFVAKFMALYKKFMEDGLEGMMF
T1 sequence (P35249 whole entry, further chain, the tested form may be a part): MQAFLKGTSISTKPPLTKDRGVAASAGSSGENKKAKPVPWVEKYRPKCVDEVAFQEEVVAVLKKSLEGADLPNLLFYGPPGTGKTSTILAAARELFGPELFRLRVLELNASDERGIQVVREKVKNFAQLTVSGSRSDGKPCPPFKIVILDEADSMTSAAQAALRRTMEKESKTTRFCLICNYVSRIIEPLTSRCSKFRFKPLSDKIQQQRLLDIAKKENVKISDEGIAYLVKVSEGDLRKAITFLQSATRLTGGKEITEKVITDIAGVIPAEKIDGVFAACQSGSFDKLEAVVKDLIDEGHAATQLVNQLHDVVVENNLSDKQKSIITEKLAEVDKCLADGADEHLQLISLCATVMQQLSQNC
T1 sequence (P40937 whole entry, further chain, the tested form may be a part): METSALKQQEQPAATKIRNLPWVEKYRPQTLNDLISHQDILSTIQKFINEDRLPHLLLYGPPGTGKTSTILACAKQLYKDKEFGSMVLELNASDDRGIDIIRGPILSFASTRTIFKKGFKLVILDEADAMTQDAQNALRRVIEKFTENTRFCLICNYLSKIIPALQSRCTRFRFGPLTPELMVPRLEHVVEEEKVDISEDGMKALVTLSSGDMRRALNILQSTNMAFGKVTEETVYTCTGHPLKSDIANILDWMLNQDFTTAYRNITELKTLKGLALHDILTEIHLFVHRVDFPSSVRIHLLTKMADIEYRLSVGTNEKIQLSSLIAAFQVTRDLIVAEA

[1] = tested on: T2, human ATAD5-RFC–PCNA complex; test: cryo-EM structure; type: binding; settings: 0.5 mM ATPγS, Mg2+; bound at ATAD5, RFC2, RFC5 and (states 1 and 2) RFC4
T2 construct: N-terminally truncated ATAD5 (812-end of 1844), N-terminal 3xFLAG and C-terminal 6xHis, with RFC2-RFC5, insect cells (Sf9/Hi5); PCNA homotrimer from E. coli, His tag cut by thrombin; with Proliferating cell nuclear antigen
T2 sequence (Q96QE3 812-1844): as the sequence (Q96QE3 812-1844) above
T2 sequence (P35250 whole entry, further chain, the tested form may be a part): as the sequence (P35250 whole entry, further chain, the tested form may be a part) above
T2 sequence (P40938 whole entry, further chain, the tested form may be a part): as the sequence (P40938 whole entry, further chain, the tested form may be a part) above
T2 sequence (P35249 whole entry, further chain, the tested form may be a part): as the sequence (P35249 whole entry, further chain, the tested form may be a part) above
T2 sequence (P40937 whole entry, further chain, the tested form may be a part): as the sequence (P40937 whole entry, further chain, the tested form may be a part) above
T2 sequence (P12004 whole entry partner, the tested form may be a part): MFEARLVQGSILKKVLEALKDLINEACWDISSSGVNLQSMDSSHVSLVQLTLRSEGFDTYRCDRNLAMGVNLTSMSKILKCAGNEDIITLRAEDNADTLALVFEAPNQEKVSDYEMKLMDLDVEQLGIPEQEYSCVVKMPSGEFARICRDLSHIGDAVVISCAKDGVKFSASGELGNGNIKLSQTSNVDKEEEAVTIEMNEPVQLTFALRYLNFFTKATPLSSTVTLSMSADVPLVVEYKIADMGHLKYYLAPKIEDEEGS

For Nc1ncnc2c1ncn2[C@@H]1O[C@H](COP(=O)(O)OP(=O)(O)OP(=O)(O)O)[C@@H](O)[C@H]1O [ATP], the ATP hydrolyzed/min (ATAD5-RFC) was “ATP hydrolyzed/min by ATAD5-RFC alone or with PCNA and/or DNA”.

In the case of Nc1ncnc2c1ncn2[C@@H]1O[C@H](COP(=O)(O)OP(=O)(O)OP(O)(O)=S)[C@@H](O)[C@H]1O [ATPγS], the cryo-EM structure [1] is reported as “four subunits (ATAD5, RFC2, RFC5 and RFC4, that is, subunits A–D) each bound an ATPγS”.
